System: MV-4-11 cells
Assay: Gene expression microarray analysis (Affymetrix PrimeView) and GSEA
Type: cell-based, human
Parameters: RFU PODN (11730768_x_at) / Fold change /veh PODN (11730768_x_at) / RFU LINC00158 (11744669_a_at) / Fold change /veh LINC00158 (11744669_a_at) / RFU DUSP10 (11751237_a_at) / Fold change /veh DUSP10 (11751237_a_at) / RFU ID3 (11757404_x_at) / Fold change /veh ID3 (11757404_x_at) / RFU PLEKHG5 (11737974_s_at) / Fold change /veh PLEKHG5 (11737974_s_at) / RFU LRRC4B (11730491_at) / Fold change /veh LRRC4B (11730491_at) / RFU GIMAP4 (11747438_a_at) / Fold change /veh GIMAP4 (11747438_a_at) / RFU KRT8 (11758183_x_at) / Fold change /veh KRT8 (11758183_x_at) / RFU CNN1 (11734310_a_at) / Fold change /veh CNN1 (11734310_a_at) / RFU VPS37D (11726825_at) / Fold change /veh VPS37D (11726825_at) / RFU C10orf10 (11716522_x_at) / Fold change /veh C10orf10 (11716522_x_at) / RFU KIR2DL2 /// KIR2DL4 /// KIR2DL5A /// KIR2DL5B /// KIR2DS1 /// KIR2DS2 /// KIR2DS3 /// KIR2DS4 /// KIR3DL3 /// KIR3DL3 /// KIR3DS1 (11738374_at) / Fold change /veh KIR2DL2 /// KIR2DL4 /// KIR2DL5A /// KIR2DL5B /// KIR2DS1 /// KIR2DS2 /// KIR2DS3 /// KIR2DS4 /// KIR3DL3 /// KIR3DL3 /// KIR3DS1 (11738374_at) / RFU C1QL1 (11718748_at) / Fold change /veh C1QL1 (11718748_at) / RFU TMPRSS4 (11747572_a_at) / Fold change /veh TMPRSS4 (11747572_a_at) / RFU HAMP (11756126_x_at) / Fold change /veh HAMP (11756126_x_at) / RFU RNFT2 (11725882_a_at) / Fold change /veh RNFT2 (11725882_a_at) / RFU NR4A2 (11747474_a_at) / Fold change /veh NR4A2 (11747474_a_at) / RFU ABCC12 (11746883_a_at) / Fold change /veh ABCC12 (11746883_a_at) / RFU TMEM136 (11760407_x_at) / Fold change /veh TMEM136 (11760407_x_at) / RFU CLDN22 /// WWC2 (11732394_at) / Fold change /veh CLDN22 /// WWC2 (11732394_at) / RFU HLA-DPB1 (11760878_x_at) / Fold change /veh HLA-DPB1 (11760878_x_at) / RFU SPINT1 (11716480_a_at) / Fold change /veh SPINT1 (11716480_a_at) / RFU GAP43 (11754022_s_at) / Fold change /veh GAP43 (11754022_s_at) / RFU A4GNT (11735810_at) / Fold change /veh A4GNT (11735810_at) / RFU PRB3 (11715151_x_at) / Fold change /veh PRB3 (11715151_x_at) / RFU TUBB4B (11761932_at) / Fold change /veh TUBB4B (11761932_at) / RFU CAPN14 (11732068_a_at) / Fold change /veh CAPN14 (11732068_a_at) / RFU TMCC2 (11721928_a_at) / Fold change /veh TMCC2 (11721928_a_at) / RFU IRGQ (11745062_a_at) / Fold change /veh IRGQ (11745062_a_at) / RFU FAM174B (11720279_a_at) / Fold change /veh FAM174B (11720279_a_at) / RFU TMPRSS4 (11748680_a_at) / Fold change /veh TMPRSS4 (11748680_a_at) / RFU FAM212B (11763350_a_at) / Fold change /veh FAM212B (11763350_a_at) / RFU PLEKHG5 (11743358_a_at) / Fold change /veh PLEKHG5 (11743358_a_at) / RFU ZSCAN30 (11745921_a_at) / Fold change /veh ZSCAN30 (11745921_a_at) / RFU CMKLR1 (11741424_a_at) / Fold change /veh CMKLR1 (11741424_a_at) / RFU LOC101060620 /// MAPK8IP1 (11723275_at) / Fold change /veh LOC101060620 /// MAPK8IP1 (11723275_at) / RFU SPTSSB (11747773_x_at) / Fold change /veh SPTSSB (11747773_x_at) / RFU PRSS12 (11739890_at) / Fold change /veh PRSS12 (11739890_at) / RFU BIN1 (11741810_x_at) / Fold change /veh BIN1 (11741810_x_at) / RFU WNT11 (11732464_a_at) / Fold change /veh WNT11 (11732464_a_at) / RFU C10orf10 (11716521_a_at) / Fold change /veh C10orf10 (11716521_a_at) / RFU C5orf56 (11738089_at) / Fold change /veh C5orf56 (11738089_at) / RFU CYB561 (11721691_x_at) / Fold change /veh CYB561 (11721691_x_at) / RFU ANKRD19P (11752326_a_at) / Fold change /veh ANKRD19P (11752326_a_at) / RFU OR2T12 /// OR2T33 /// OR2T8 (11738714_s_at) / Fold change /veh OR2T12 /// OR2T33 /// OR2T8 (11738714_s_at) / RFU VCAN (11748164_a_at) / Fold change /veh VCAN (11748164_a_at) / RFU JSRP1 (11732532_at) / Fold change /veh JSRP1 (11732532_at) / RFU KRTAP10-11 (11738290_x_at) / Fold change /veh KRTAP10-11 (11738290_x_at) / RFU MYO3A (11730013_a_at) / Fold change /veh MYO3A (11730013_a_at) / RFU EBF3 (11725865_a_at) / Fold change /veh EBF3 (11725865_a_at) / RFU CAMK2N1 (11719241_x_at) / Fold change /veh CAMK2N1 (11719241_x_at) / RFU C5orf56 (11738088_a_at) / Fold change /veh C5orf56 (11738088_a_at) / RFU OLFML3 (11715873_a_at) / Fold change /veh OLFML3 (11715873_a_at) / RFU LOC100653217 /// NTM (11731650_a_at) / Fold change /veh LOC100653217 /// NTM (11731650_a_at) / RFU MAPK11 (11762145_a_at) / Fold change /veh MAPK11 (11762145_a_at) / RFU FIZ1 (11724087_x_at) / Fold change /veh FIZ1 (11724087_x_at) / RFU OASL (11726364_x_at) / Fold change /veh OASL (11726364_x_at) / RFU SOX15 (11748057_x_at) / Fold change /veh SOX15 (11748057_x_at) / RFU CD79A (11719716_a_at) / Fold change /veh CD79A (11719716_a_at) / RFU HIST1H1D (11736915_at) / Fold change /veh HIST1H1D (11736915_at) / RFU CASKIN2 (11723855_a_at) / Fold change /veh CASKIN2 (11723855_a_at) / RFU LOC730098 (11760151_x_at) / Fold change /veh LOC730098 (11760151_x_at) / RFU OR4N2 (11742367_at) / Fold change /veh OR4N2 (11742367_at) / RFU PRRT2 (11749266_a_at) / Fold change /veh PRRT2 (11749266_a_at) / RFU SNX32 (11753110_a_at) / Fold change /veh SNX32 (11753110_a_at) / RFU CDHR5 (11726645_a_at) / Fold change /veh CDHR5 (11726645_a_at) / RFU RCAN1 (11760418_a_at) / Fold change /veh RCAN1 (11760418_a_at) / RFU FAM167A (11723789_a_at) / Fold change /veh FAM167A (11723789_a_at) / RFU FAM26E (11764081_at) / Fold change /veh FAM26E (11764081_at) / RFU ISYNA1 (11749810_s_at) / Fold change /veh ISYNA1 (11749810_s_at) / RFU ACY1 (11761880_at) / Fold change /veh ACY1 (11761880_at) / RFU 11764098_at / Fold change /veh 11764098_at / RFU SAMD14 (11745864_x_at) / Fold change /veh SAMD14 (11745864_x_at) / RFU NPB (11741838_a_at) / Fold change /veh NPB (11741838_a_at) / RFU TMPRSS6 (11731388_a_at) / Fold change /veh TMPRSS6 (11731388_a_at) / RFU KRTAP10-2 (11738614_at) / Fold change /veh KRTAP10-2 (11738614_at) / RFU ARHGAP8 /// PRR5-ARHGAP8 (11727945_x_at) / Fold change /veh ARHGAP8 /// PRR5-ARHGAP8 (11727945_x_at) / RFU KRTAP5-7 /// NADSYN1 (11734609_at) / Fold change /veh KRTAP5-7 /// NADSYN1 (11734609_at) / RFU RASL12 (11751679_a_at) / Fold change /veh RASL12 (11751679_a_at) / RFU CDKN2B (11736163_a_at) / Fold change /veh CDKN2B (11736163_a_at) / RFU PRF1 (11729649_at) / Fold change /veh PRF1 (11729649_at) / RFU, ZNF638 /// ZNF638-IT1 / Fold change vs veh, ZNF638 /// ZNF638-IT1 / RFU, PANK3 / Fold change vs veh, PANK3 / RFU, SH3YL1 / Fold change vs veh, SH3YL1 / RFU, ZEB2 / Fold change vs veh, ZEB2 / RFU, NRIP1 / Fold change vs veh, NRIP1 / RFU, PTTG1IP / Fold change vs veh, PTTG1IP / RFU, CAPN2 / Fold change vs veh, CAPN2 / RFU, MED14 / Fold change vs veh, MED14 / RFU, SNORA58 / Fold change vs veh, SNORA58 / RFU, C1orf63 / Fold change vs veh, C1orf63 / RFU, LRRFIP1 / Fold change vs veh, LRRFIP1 / RFU, NDUFAF7 / Fold change vs veh, NDUFAF7 / RFU, SLC12A2 / Fold change vs veh, SLC12A2 / RFU, IBTK / Fold change vs veh, IBTK / RFU, ESF1 / Fold change vs veh, ESF1 / Fold change vs veh, TMEM50B / RFU, TAOK1 / Fold change vs veh, TAOK1 / RFU, ACBD3 / Fold change vs veh, ACBD3 / RFU, TMA16 / Fold change vs veh, TMA16 / RFU, RWDD3 / Fold change vs veh, RWDD3 / RFU, BCAT1 / Fold change vs veh, BCAT1 / RFU, EDEM3 / Fold change vs veh, EDEM3 / RFU, TMEM33 / Fold change vs veh, TMEM33 / RFU, WDR75 / Fold change vs veh, WDR75 / RFU, AHCTF1 / Fold change vs veh, AHCTF1 / RFU, TFRC / Fold change vs veh, TFRC / RFU, ZDHHC17 / Fold change vs veh, ZDHHC17 / RFU, NOM1 / Fold change vs veh, NOM1 / RFU, ARL8B / Fold change vs veh, ARL8B / RFU, ZBTB11 / Fold change vs veh, ZBTB11 / RFU, TAMM41 / Fold change vs veh, TAMM41 / RFU, KIAA1704 /// LOC100996395 / Fold change vs veh, KIAA1704 /// LOC100996395 / RFU, ING1 / Fold change vs veh, ING1 / RFU, TRMT61B / Fold change vs veh, TRMT61B / RFU, FUBP3 / Fold change vs veh, FUBP3 / RFU, TP53 / Fold change vs veh, TP53 / RFU, TNKS2 / Fold change vs veh, TNKS2 / RFU, ZFP14 / Fold change vs veh, ZFP14 / RFU, ACTR2 / Fold change vs veh, ACTR2 / RFU, PPP3R1 / Fold change vs veh, PPP3R1 / RFU, PIK3R1 / Fold change vs veh, PIK3R1 / RFU, HNRNPA1 / Fold change vs veh, HNRNPA1 / RFU, RNF170 / Fold change vs veh, RNF170 / RFU, ZNF28 / Fold change vs veh, ZNF28 / RFU, RNGTT / Fold change vs veh, RNGTT / RFU, OGT / Fold change vs veh, OGT / RFU, BRD1 / Fold change vs veh, BRD1 / RFU, MARS / Fold change vs veh, MARS / RFU, ZNF655 / Fold change vs veh, ZNF655 / RFU, FAHD1 / Fold change vs veh, FAHD1 / RFU, BDP1 / Fold change vs veh, BDP1 / RFU, LRRCC1 / Fold change vs veh, LRRCC1 / RFU, ARID1A / Fold change vs veh, ARID1A / RFU, ZNF146 / Fold change vs veh, ZNF146 / RFU, ZNF330 / Fold change vs veh, ZNF330 / RFU, GPN3 / Fold change vs veh, GPN3 / RFU, C9orf123 / Fold change vs veh, C9orf123 / RFU, N4BP2L2 / Fold change vs veh, N4BP2L2 / RFU, ARFIP1 / Fold change vs veh, ARFIP1 / RFU, FAM179B / Fold change vs veh, FAM179B / RFU, BCL10 / Fold change vs veh, BCL10 / RFU, UHRF1BP1L / Fold change vs veh, UHRF1BP1L / RFU, BET1 / Fold change vs veh, BET1 / RFU, CNOT2 / Fold change vs veh, CNOT2 / RFU, ZNF268 / Fold change vs veh, ZNF268 / Fold change vs veh, ZNF507 / RFU, DGCR2 / Fold change vs veh, DGCR2 / RFU, WDSUB1 / Fold change vs veh, WDSUB1 / Fold change vs veh, HSP90B1 /// MIR3652 / RFU, ADSS / Fold change vs veh, ADSS / RFU, GK / Fold change vs veh, GK / RFU, ZNF148 / Fold change vs veh, ZNF148 / RFU, TAF9 / Fold change vs veh, TAF9 / RFU, SLC1A5 / Fold change vs veh, SLC1A5 / RFU, SLMO2 / Fold change vs veh, SLMO2 / RFU, ABCC4 / Fold change vs veh, ABCC4 / RFU, LOC101060439 /// RAP1B / Fold change vs veh, LOC101060439 /// RAP1B / RFU, RFX7 / Fold change vs veh, RFX7 / RFU, GTPBP10 / Fold change vs veh, GTPBP10 / RFU, CNEP1R1 / Fold change vs veh, CNEP1R1 / RFU, BIVM-ERCC5 /// ERCC5 / Fold change vs veh, BIVM-ERCC5 /// ERCC5 / RFU, ILF3 / Fold change vs veh, ILF3 / RFU 11762660_at / Fold change /veh 11762660_at / RFU VCAN (11757783_s_at) / Fold change /veh VCAN (11757783_s_at) / RFU DDX43 (11728927_at) / Fold change /veh DDX43 (11728927_at) / RFU KRT8 (11758188_x_at) / Fold change /veh KRT8 (11758188_x_at) / RFU NKD1 (11759106_at) / Fold change /veh NKD1 (11759106_at) / RFU SRD5A1 (11742802_a_at) / Fold change /veh SRD5A1 (11742802_a_at) / RFU TPSAB1 /// TPSB2 (11721975_s_at) / Fold change /veh TPSAB1 /// TPSB2 (11721975_s_at) / RFU GSTM3 (11746129_a_at) / Fold change /veh GSTM3 (11746129_a_at) / RFU IL23R (11737362_x_at) / Fold change /veh IL23R (11737362_x_at) / RFU TMEM51 (11727254_a_at) / Fold change /veh TMEM51 (11727254_a_at) / RFU PIWIL2 (11732686_x_at) / Fold change /veh PIWIL2 (11732686_x_at) / RFU ORM1 (11744905_x_at) / Fold change /veh ORM1 (11744905_x_at) / RFU CCDC152 (11743942_at) / Fold change /veh CCDC152 (11743942_at) / RFU ECM1 (11717891_a_at) / Fold change /veh ECM1 (11717891_a_at) / RFU IL23R (11748794_a_at) / Fold change /veh IL23R (11748794_a_at) / RFU TNFAIP8L3 (11732012_x_at) / Fold change /veh TNFAIP8L3 (11732012_x_at) / RFU MBOAT4 (11741988_at) / Fold change /veh MBOAT4 (11741988_at) / RFU 11764193_at / Fold change /veh 11764193_at / RFU TMEM53 (11763286_at) / Fold change /veh TMEM53 (11763286_at) / RFU MAGEB2 (11727129_at) / Fold change /veh MAGEB2 (11727129_at) / RFU TMEM200A (11744735_a_at) / Fold change /veh TMEM200A (11744735_a_at) / RFU CCDC152 (11751479_a_at) / Fold change /veh CCDC152 (11751479_a_at) / RFU FAM211A (11726209_a_at) / Fold change /veh FAM211A (11726209_a_at) / RFU RGS16 (11746705_a_at) / Fold change /veh RGS16 (11746705_a_at) / RFU VCAN (11755009_s_at) / Fold change /veh VCAN (11755009_s_at) / RFU RHOB (11743442_s_at) / Fold change /veh RHOB (11743442_s_at) / RFU RGS16 (11720943_a_at) / Fold change /veh RGS16 (11720943_a_at) / RFU RGS16 (11720944_at) / Fold change /veh RGS16 (11720944_at) / RFU, VPS4B / Fold change vs veh, VPS4B / RFU, CREB1 / Fold change vs veh, CREB1 / RFU, DNAJC13 / Fold change vs veh, DNAJC13 / RFU, GNAQ / Fold change vs veh, GNAQ / RFU, CDK5R1 / Fold change vs veh, CDK5R1 / RFU, ZRANB3 / Fold change vs veh, ZRANB3 / RFU, CUL4A / Fold change vs veh, CUL4A / RFU, CCNY / Fold change vs veh, CCNY / RFU, UFL1 / Fold change vs veh, UFL1 / RFU, COG3 / Fold change vs veh, COG3 / RFU, DIAPH2 / Fold change vs veh, DIAPH2 / RFU, SKA2 / Fold change vs veh, SKA2 / RFU, AFF3 / Fold change vs veh, AFF3 / RFU, LMF1 / Fold change vs veh, LMF1 / RFU, IPO11 / Fold change vs veh, IPO11 / RFU, DFFB / Fold change vs veh, DFFB / RFU, FOXP1 / Fold change vs veh, FOXP1 / RFU, CARD8 / Fold change vs veh, CARD8 / RFU, STRN3 / Fold change vs veh, STRN3 / RFU, ADK / Fold change vs veh, ADK / RFU, RASSF2 / Fold change vs veh, RASSF2 / RFU, WIPF1 / Fold change vs veh, WIPF1 / RFU, LARP1B / Fold change vs veh, LARP1B / RFU, RASA1 / Fold change vs veh, RASA1 / RFU, RB1 / Fold change vs veh, RB1 / RFU, PPFIA1 / Fold change vs veh, PPFIA1 / RFU, MAT2A / Fold change vs veh, MAT2A / RFU, CCT5 / Fold change vs veh, CCT5 / RFU, WDR92 / Fold change vs veh, WDR92 / RFU, CUX1 / Fold change vs veh, CUX1 / RFU, TTC7A / Fold change vs veh, TTC7A / RFU, TMEM135 / Fold change vs veh, TMEM135 / RFU, DEPTOR / Fold change vs veh, DEPTOR / RFU, CPM / Fold change vs veh, CPM / RFU, DNAJB6 / Fold change vs veh, DNAJB6 / RFU, CACNA2D3 / Fold change vs veh, CACNA2D3 / RFU, DTX4 / Fold change vs veh, DTX4 / RFU, TFCP2 / Fold change vs veh, TFCP2 / RFU, GMCL1 /// GMCL1P1 / Fold change vs veh, GMCL1 /// GMCL1P1 / RFU, AEBP2 / Fold change vs veh, AEBP2 / RFU, SNHG1 /// SNORD22 /// SNORD25 /// SNORD26 /// SNORD27 /// SNORD28 /// SNORD29 /// SNORD31 / Fold change vs veh, SNHG1 /// SNORD22 /// SNORD25 /// SNORD26 /// SNORD27 /// SNORD28 /// SNORD29 /// SNORD31 / Fold change (Aza/veh), C12orf56 (ProbeSet 11735607_a_at) / Fold change (ACY-1035/veh), C12orf56 (ProbeSet 11735607_a_at) / Fold change (Aza/veh), FGFR1OP (ProbeSet 11751329_s_at) / Fold change (ACY-1035/veh), FGFR1OP (ProbeSet 11751329_s_at) / Fold change (Aza/veh), VPS36 (ProbeSet 11739960_a_at) / Fold change (ACY-1035/veh), VPS36 (ProbeSet 11739960_a_at) / RFU SYPL1 (11715823_x_at) / Fold change /veh SYPL1 (11715823_x_at) / RFU IGFBP7 (11715501_s_at) / Fold change /veh IGFBP7 (11715501_s_at) / RFU REEP3 (11722064_at) / Fold change /veh REEP3 (11722064_at) / RFU IGLL1 (11728026_x_at) / Fold change /veh IGLL1 (11728026_x_at): dose or concentration left out as unconfirmed
Settings: ProbeSet 11722022_s_at; LIST D

In the case of Nc1ncn([C@@H]2O[C@H](CO)[C@@H](O)[C@H]2O)c(=O)n1 [azacitidine], the “RFU, CDK5R1” value is reported as 40.46 RFU.

From article PMC5218480 (PLoS ONE, 2017)
